Results taken from patent US8318730B2, “Fused hetrocyclic compounds” (Synta Pharmaceuticals Corporation, priority 2003, dated 2012).

Tested on: IL-12 production
Assay: In vitro assay of Example 12: inhibition of IL-12 production in IFNγ/LPS- or IFNγ/SAC-stimulated cells, ELISA
Assay type: cell-based, human
From the text: The biological activities of a compound can be evaluated by a number of cell-based assays. One of such assays can be conducted using cells from human peripheral blood mononuclear cells (PBMC) or human monocytic cell line (THP-1). The cells are stimulated with a combination of human interferon-γ (IFNγ) and lipopolysaccharide or a combination of IFNγ and Staphylococcus aureus Cowan I in the presence of a test compound. The level of inhibition of IL-12 production can be measured by determining the amount of p70 by using a sandwich ELISA assay with anti-human IL-12 antibodies. IC50 of the test compound can then be determined. Specifically, PBMC or THP-1 cells are incubated with the test compound. Cell viability was assessed using the bioreduction of MTS [3-(4,5-dimethylthiazol-2-yl)-5-(3-carboxymethoxyphenyl)-2-(4-sulfophenyl)-2H-tetrazolium] (Promega, Madison, Wis.).
Staphylococcus aureus Cowan I (SAC) is obtained from Calbiochem (La Jolla, Calif.), and lipopolysaccharide (LPS, Serratia marscencens) is obtained from Sigma (St. Louis, Mo.). Human and mouse recombinant IFNγ are purchased from Boehringer Mannheim (Mannheim, Germany) and Pharmingen (San Diego, Calif.), respectively.
Human PBMC are isolated by centrifugation using Ficoll-Paque (Pharmacia Biotech, Uppsala, Sweden) and prepared in RPMI medium supplemented with 10% fetal calf serum (FCS), 100 U/mL penicillin, and 100 μg/mL streptomycin. PBMC are plated in wells of a 96-well plate at a concentration of 5×10^5 cells/well, and primed by adding IFNγ (30 U/mL) for 22 h and stimulated by adding LPS (1 μg/mL), or by adding IFNγ (100 U/mL) and then stimulated by adding SAC (0.01%). A test quinazoline compound is dissolved in DMSO, and added to wells of the 96-well plate. The final DMSO concentration is adjusted to 0.25% in all cultures, including the compound-free control. Human THP-1 cells are plated in wells, primed by adding IFNγ (100 U/mL) for 22 h and stimulated by adding SAC (0.025%) in the presence of different concentrations of the quinazoline compound. Cell-free supernatants are taken 18 h later for measurement of cytokines. Cell viability is assessed using the bioreduction of MTS. Cell survival is estimated by determining the ratio of the absorbance in compound-treated groups versus compound-free control.
The supernatant is assayed for the amount of IL-12p40, IL-12p70, or IL-10 by using a sandwich ELISA with anti-human antibodies, i.e., a Human IL-12 p40 ELISA kit from R&D Systems (Berkeley, Calif.), and a Human IL-12 p70 or IL-10 ELISA kit from Endogen (Cambridge, Mass.). Assays are based on the manufacturer's instructions.
The biological activities of quinazoline compounds are tested on human PBMC or THP-1 cells.

[1] = measured in an assay according to Example 12, human PBMC or THP-1 cells
[2] = Homo sapiens, assay of Example 12, if more than one assay was performed, only the most active IC50 result is reported

Compound: 2-Methyl-1-(4-morpholin-4-yl-6-m-tolyl-quinazolin-2-yloxy)-propan-2-ol [Compound 17]
- IC50 (assay of Example 12, if more than one assay was performed, only the most active IC50 result is reported): 370 nM

Compound: COc1cc2nc(N3CCOCC3)nc(NN=Cc3cccc(C)c3)c2cc1OC [Compound 1, N-(6,7-Dimethoxy-2-morpholin-4-yl-quinazolin-4-yl)-N′-(3-methyl-benzylidene)-hydrazine]
- IC50 [1]: 98.8 nM

Compound: COc1cc2nc(N3CCOCC3)nc(Nc3ccc4[nH]c(C)c(C)c4c3)c2cc1OC [Compound 2, (6,7-Dimethoxy-2-morpholin-4-yl-quinazolin-4-yl)-(2,3-dimethyl-1H-indol-5-yl)-amine]
- IC50 [1]: 109 nM

Compound: COc1cc2nc(N3CCOCC3)nc(NC(=O)Nc3cccc(C)c3)c2cc1OC [Compound 6, 1-(6,7-dimethoxy-2-morpholin-4-yl-quinazolin-4-yl)-3-m-tolyl-urea]
- IC50 [1]: 60.5 nM

Compound: Cc1cccc(/C=N/Nc2nc(N3CCOCC3)nc3cc(Cl)ccc23)c1 [Compound 8, N-(7-Chloro-2-morpholin-4-yl-quinazolin-4-yl)-N′-(3-methyl-benzylidene)-hydrazine]
- IC50 [1]: 298 nM

Compound: COc1cc2nc(N3CCOCC3)nc(N/N=C/c3cccc(C)c3)c2cc1OCCOc1ccccc1 [Compound 9, N-[7-Methoxy-2-morpholin-4-yl-6-(2-phenoxy-ethoxy)-quinazolin-4-yl]-N′-(3-methyl-benzylidene)-hydrazine]
- IC50 [1]: 800 nM

Compound: Cc1[nH]c2ccc(Nc3nc(N4CCOCC4)nc4ccc([N+](=O)[O-])cc34)cc2c1C [Compound 10, (2,3-Dimethyl-1H-indol-5-yl)-(2-morpholin-4-yl-6-nitro-quinazolin-4-yl)-amine]
- IC50 [1]: 5000 nM

Compound: COc1cc2nc(N3CCOCC3)nc(Nc3cccc(C)c3)c2cc1OC [Compound 11, (6,7-Dimethoxy-2-morpholin-4-yl-quinazolin-4-yl)-m-tolyl-amine]
- IC50 [1]: 10000 nM

Compound: COCCOc1nc(N2CCOCC2)c2cc(-c3cccc(C)c3)ccc2n1 [Compound 13, 2-(2-Methoxy-ethoxy)-4-morpholin-4-yl-6-m-tolyl-quinazoline]
- IC50 [2]: 1820 nM

Compound: c1ccc(Nc2ccc3nc(OCCN4CCOCC4)nc(N4CCOCC4)c3c2)cc1 [Compound 14, [4-Morpholin-4-yl-2-(2-morpholin-4-yl-ethoxy)-quinazolin-6-yl]-phenyl-amine]
- IC50 [2]: 3000 nM

Compound: COc1ccc(CCOc2nc(N3CCOCC3)c3cc(-c4cccc(C)c4)ccc3n2)cc1OC [Compound 15, 2-[2-(3,4-Dimethoxy-phenyl)-ethoxy]-4-morpholin-4-yl-6-m-tolyl-quinazoline]
- IC50 [2]: 189 nM

Compound: Cc1cccc(-c2ccc3nc(OCCc4ccccn4)nc(N4CCOCC4)c3c2)c1 [Compound 16, 4-Morpholin-4-yl-2-(2-pyridin-2-yl-ethoxy)-6-m-tolyl-quinazoline]
- IC50 [2]: 86 nM

Compound: Cc1cccc(-c2ccc3nc(OCCO)nc(N4CCOCC4)c3c2)c1 [Compound 18, 2-(4-Morpholin-4-yl-6-m-tolyl-quinazolin-2-yloxy)-ethanol]
- IC50 [2]: 162 nM

Compound: COc1ccc(CCOc2nc(N3CCOCC3)c3cc(-c4ccccc4)ccc3n2)cc1OC [Compound 19, 2-[2-(3,4-Dimethoxy-phenyl)-ethoxy]-4-morpholin-4-yl-6-phenyl-quinazoline]
- IC50 [2]: 6910 nM

Compound: COc1ccc(CCOc2nc(N3CCOCC3)c3cc(-c4cccc(C(F)(F)F)c4)ccc3n2)cc1OC [Compound 20, 2-[2-(3,4-Dimethoxy-phenyl)-ethoxy]-4-morpholin-4-yl-6-(3-trifluoromethyl-phenyl)-quinazoline]
- IC50 [2]: 107 nM

Compound: COc1ccc(CCOc2nc(N3CCOCC3)c3cc(-c4ccc(C)cc4)ccc3n2)cc1OC [Compound 21, 2-[2-(3,4-Dimethoxy-phenyl)-ethoxy]-4-morpholin-4-yl-6-p-tolyl-quinazoline]
- IC50 [2]: 59 nM

Compound: COc1ccc(CCOc2nc(N3CCOCC3)c3cc(-c4ccc(C)s4)ccc3n2)cc1OC [Compound 22, 2-[2-(3,4-Dimethoxy-phenyl)-ethoxy]-6-(5-methyl-thiophen-2-yl)-4-morpholin-4-yl-quinazoline]
- IC50 [2]: 3040 nM

Compound: COc1ccc(CCOc2nc(N3CCOCC3)c3cc(-c4cccc(C#N)c4)ccc3n2)cc1OC [Compound 23, 3-{2-[2-(3,4-Dimethoxy-phenyl)-ethoxy]-4-morpholin-4-yl-quinazolin-6-yl}-benzonitrile]
- IC50 [2]: > 10000 nM

Compound: COc1ccc(CCOc2nc(N3CCOCC3)c3cc(-c4cccc(C(N)=O)c4)ccc3n2)cc1OC [Compound 24, 3-{2-[2-(3,4-Dimethoxy-phenyl)-ethoxy]-4-morpholin-4-yl-quinazolin-6-yl}-benzamide]
- IC50 [2]: 1430 nM

Compound: COc1cccc(-c2ccc3nc(OCCc4ccc(OC)c(OC)c4)nc(N4CCOCC4)c3c2)c1 [Compound 25, 2-[2-(3,4-Dimethoxy-phenyl)-ethoxy]-6-(3-methoxy-phenyl)-4-morpholin-4-yl-quinazoline]
- IC50 [2]: 400 nM

Compound: COc1ccc(CCOc2nc(N3CCOCC3)c3cc(-c4ccc(C)c(C)c4)ccc3n2)cc1OC [Compound 26, 2-[2-(3,4-Dimethoxy-phenyl)-ethoxy]-6-(3,4-dimethyl-phenyl)-4-morpholin-4-yl-quinazoline]
- IC50 [2]: 107 nM

Compound: COc1ccc(CCOc2nc(N3CCOCC3)c3cc(-c4cc(C)cc(C)c4)ccc3n2)cc1OC [Compound 27, 2-[2-(3,4-Dimethoxy-phenyl)-ethoxy]-6-(3,5-dimethyl-phenyl)-4-morpholin-4-yl-quinazoline]
- IC50 [2]: 470 nM

Compound: COc1ccc(CCOc2nc(N3CCOCC3)c3cc(-c4cc5ccccc5o4)ccc3n2)cc1OC [Compound 28, 6-Benzofuran-2-yl-2-[2-(3,4-dimethoxy-phenyl)-ethoxy]-4-morpholin-4-yl-quinazoline]
- IC50 [2]: 64 nM

Compound: COc1ccc(CCOc2nc(N3CCOCC3)c3cc(-c4ccc(Cl)cc4)ccc3n2)cc1OC [Compound 30, 6-(4-Chloro-phenyl)-2-[2-(3,4-dimethoxy-phenyl)-ethoxy]-4-morpholin-4-yl-quinazoline]
- IC50 [2]: > 1000 nM

Compound: COc1ccc(-c2ccc3nc(OCCc4ccc(OC)c(OC)c4)nc(N4CCOCC4)c3c2)cc1 [Compound 31, 2-[2-(3,4-Dimethoxy-phenyl)-ethoxy]-6-(4-methoxy-phenyl)-4-morpholin-4-yl-quinazoline]
- IC50 [2]: 419 nM

Compound: COc1ccc(CCOc2nc(N3CCOCC3)c3cc(-c4ccc(C(F)(F)F)cc4)ccc3n2)cc1OC [Compound 32, 2-[2-(3,4-Dimethoxy-phenyl)-ethoxy]-4-morpholin-4-yl-6-(4-trifluoromethyl-phenyl)-quinazoline]
- IC50 [2]: 3000 nM

Compound: COc1ccc(CCOc2nc(N3CCOCC3)c3cc(-c4ccc(F)cc4)ccc3n2)cc1OC [Compound 33, 6-(4-Fluoro-phenyl)-2-[2-(3,4-dimethoxy-phenyl)-ethoxy]-4-morpholin-4-yl-quinazoline]
- IC50 [2]: > 10000 nM

Compound: COc1ccc(CCOc2nc(N3CCOCC3)c3cc(Oc4ccccc4Cl)ccc3n2)cc1OC [Compound 34, 6-(2-Chloro-phenoxy)-2-[2-(3,4-dimethoxy-phenyl)-ethoxy]-4-morpholin-4-yl-quinazoline]
- IC50 [2]: 347 nM

Compound: COc1ccc(CCOc2nc(N3CCOCC3)c3cc(Oc4cccc(Cl)c4)ccc3n2)cc1OC [Compound 35, 6-(3-Chloro-phenoxy)-2-[2-(3,4-dimethoxy-phenyl)-ethoxy]-4-morpholin-4-yl-quinazoline]
- IC50 [2]: 9900 nM

Compound: COc1ccc(CCOc2nc(N3CCOCC3)c3cc(Oc4ccc(C)cc4)ccc3n2)cc1OC [Compound 36, 2-[2-(3,4-Dimethoxy-phenyl)-ethoxy]-4-morpholin-4-yl-6-p-tolyloxy-quinazoline]
- IC50 [2]: 2600 nM

Compound: Cc1ccc(-c2ccc3nc(OCCN4CCOCC4)nc(N4CCOCC4)c3c2)cc1 [Compound 37, 4-Morpholin-4-yl-2-(2-morpholin-4-yl-ethoxy)-6-p-tolyl-quinazoline]
- IC50 [2]: 2500 nM

Compound: Fc1ccc(-c2ccc3nc(OCCN4CCOCC4)nc(N4CCOCC4)c3c2)cc1 [Compound 38, 6-(4-Fluoro-phenyl)-4-morpholin-4-yl-2-(2-morpholin-4-yl-ethoxy)-quinazoline]
- IC50 [2]: > 10000 nM

Compound: COc1ccc(CCOc2nc(N3CCOCC3)c3cc(Nc4cccc(C)c4)ccc3n2)cc1OC [Compound 39, {2-[2-(3,4-Dimethoxy-phenyl)-ethoxy]-4-morpholin-4-yl-quinazolin-6-yl}-m-tolyl-amine]
- IC50 [2]: > 10000 nM
